In paper PMC12303054, “First-in-class inhibitors of Nsp15 endoribonuclease of SARS-CoV-2: Modeling, synthesis, and enzymatic assay of thiazolidinedione and rhodanine analogs” (The Journal of Biological Chemistry, 2025):

Columns and labels:
Type in all cases: biochemical
Conditions in all cases: 100 µM
[1] = biological target: His250Ala SARS-CoV-2 Nsp15 (Severe acute respiratory syndrome coronavirus 2, UniProt P0DTD1, H6701A)
[2] = biological target: Tyr343Ala SARS-CoV-2 Nsp15 (Severe acute respiratory syndrome coronavirus 2, UniProt P0DTD1, Y6794A)
[3] = biological target: Ser294Ala SARS-CoV-2 Nsp15 (Severe acute respiratory syndrome coronavirus 2, UniProt P0DTD1, S6745A)
[4] = biological target: Lys345Ala SARS-CoV-2 Nsp15 (Severe acute respiratory syndrome coronavirus 2, UniProt P0DTD1, K6796A)

Measured: residual activity retained

O=C1NC(=S)SC1=CC=Cc1ccnc2ccccc12 [KCO237, 5-(3-quinolin-4-yl-allylidene)-2-thioxo-thiazolidine-4-one]
approximately 50%: all assays above
